According to patent US20240150423A1, “GLP-1 ANALOGUE-MODIFIED DIMERS WITH DIFFERENT CONFIGURATIONS, PREPARATION METHOD THEREOF, AND APPLICATION THEREOF IN TREATMENT OF TYPE II DIABETES” (Nanjing Finepeptide Biopharmaceutical Co.,Ltd, priority 2019, published 2024):
Positions of bridges follow the written chain, without caps; N, C: chain ends. Non-standard residues stand in square brackets, D forms with d. Chains are numbered I, II in the order given. No end group written: not given here. bAib = not defined here; βAla = NCCC(=O)O

System: Normal Kunming (KM) mice
Assay: multiple OGTT (mOGTT): hypoglycemic duration after a single administration
Type: in vivo
Conditions: monomeric peptides, single injection at the same dose (1.126 nmol), subcutaneous
Description: • 1. Methods: Normal Kunming (KM) mice (purchased from Guangdong Animal Center) were used for oral glucose tolerance test (OGTT) to obtain the hypoglycemic activity and durability of drug. […] The blood glucose meter and blood glucose test paper were from Bayer […]. The average blood glucose of each group was used as an evaluation standard: When the average blood glucose of experimental group was higher than that of the NaCl control group for two times, the measurement stopped and the hypoglycemic period compared to the blank control group was the effective duration. • 2. Results • 2.1 single OGTTs: after a single administration, the mice were orally administered glucose once and measured the blood glucose from the tail blood at 0, 10, 20, 40, 60 and 120 min. […] The duration of each monomer group was about 1⁄2-1⁄4 of the duration of its corresponding dimer group. […] Therefore, the 2G3 peptide was selected for treating type II diabetes (T2D) in vivo and subsequent experiments.

Substance | Hypoglycemic
His-βAla-Glu-Gly-Thr-Phe-Thr-Cys-Asp-Val-Ser-Ser-Tyr-Leu-Glu-Gly-Gln-Ala-Ala-Lys[N-ϵ-(N-α-oleoyl-L-γ-glutamyl)]-Glu-Phe-Ile-Ala-Trp-Leu-Val-Arg-Gly-Arg-Gly-NH2 (HXEGTFTCDVSSYLEGQAAXEFIAWLVRGRG; beta-amino acid; oleoyl-gamma-Glu on Lys; C-terminal amide; Sequence is synthesized; (2)..(2) Xaa is bAla; (20)..(20) Xaa is 26Lys[N-e-(N-a-oleoyl-L-g-glutamyl)]; (31)..(31) N-terminal) [G8 series 68] | 4 days
His-βAla-Glu-Gly-Thr-Phe-Thr-Cys-Asp-Val-Ser-Ser-Tyr-Leu-Glu-Gly-Gln-Ala-Ala-Lys-Glu-Phe-Ile-Ala-Trp-Leu-Val-Arg-βAla-Arg-NH2 (H[βAla]EGTFTCDVSSYLEGQAAKEFIAWLVR[βAla]R-NH2; not fully specified; printed as His-βAla-Glu-Gly-Thr-Phe-Thr-Cys-Asp-Val-Ser-Ser-Tyr-Leu-Glu-Gly-Gln-Ala-Ala-Lys-Glu-Phe-Ile-Ala-Trp-Leu-Val-Arg-βAla-Arg-NH2) [G8 series 69] | 2 days

Same assay, conditions: single injection at the same dose (1.126 nmol), subcutaneous

Substance | Hypoglycemic duration
2G4 series 33: disulfide-linked homodimer of monomer SEQ ID NO: 33 (HAEGTFTSDVSCYLEGQAAXEFIAWLVRGRG; not fully specified; disulfide-linked homodimer; Sequence is synthesized; (20)..(20) Xaa is 26Lys[N-e-(N-a-oleoyl-L-g-glutamyl)]; (31)..(31) N-terminal) | 16 days
2G2 series 16: disulfide-linked homodimer of monomer SEQ ID NO: 16 (chain 1 H[bAib]EGTFTSDVCSYLEGQAAKEFIAWLVR[bAib]R; chain 2 H[bAib]EGTFTSDVCSYLEGQAAKEFIAWLVR[bAib]R; disulfide I:11-II:11 (inferred); not fully specified; reading uncertain) | 4 days
2G4 series 38: disulfide-linked homodimer of monomer SEQ ID NO: 38 (HXEGTFTSDVSCYLEGQAAXEFIAWLVRGRG; disulfide-linked homodimer; Sequence is synthesized; (2)..(2) Xaa is bAib; (20)..(20) Xaa is 26Lys[N-e-(N-a-oleoyl-L-g-glutamyl)]; (31)..(31) N-terminal) | 17 days
2G5 series 44: disulfide-linked homodimer of monomer SEQ ID NO: 44 (HXEGTFTSDVSCYLEGQAAXEFIAWLVXGRG; disulfide-linked homodimer; Sequence is synthesized; (2)..(2) Xaa is bAla; (20)..(20) Xaa is 26Lys[N-e-(N-a-palmitoyl-L-g-glutamyl)]; (28)..(28) Xaa is 26Lys[N-e-(N-a-palmitoyl-L-g-glutamyl)]; (31)..(31) N-terminal) | 6 days
2G8 series 66: disulfide-linked homodimer of monomer SEQ ID NO: 66 (HXEGTFTCDVSSYLEGQAAXEFIAWLVRGRG; disulfide-linked homodimer; Sequence is synthesized; (2)..(2) Xaa is bAib; (20)..(20) Xaa is 26Lys[N-e-(N-a-oleoyl-L-g-glutamyl)]; (31)..(31) N-terminal) | 8 days
